Calls of active or inactive are those of the source.
Tests used:
[1] = molecular target: T1, RNA-binding protein pos-1 (Caenorhabditis elegans, UniProt G5EF15); experiment: disruptors of C. elegans POS-1 RNA interaction – biochemical, fluorescence polarization, dose response (AID 1964);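 further: purified POS-1 fused to maltose binding protein made in E. coli; potency of compounds blocking POS-1 binding to fluorescent RNA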
T1 sequence (G5EF15 whole entry): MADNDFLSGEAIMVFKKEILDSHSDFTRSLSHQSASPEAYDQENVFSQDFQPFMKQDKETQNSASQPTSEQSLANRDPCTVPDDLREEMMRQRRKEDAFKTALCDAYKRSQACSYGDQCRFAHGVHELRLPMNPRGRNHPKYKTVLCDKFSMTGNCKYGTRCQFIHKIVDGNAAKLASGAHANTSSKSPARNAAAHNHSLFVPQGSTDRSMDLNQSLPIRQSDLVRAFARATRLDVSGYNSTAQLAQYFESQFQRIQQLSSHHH

[2] = molecular target: T2, Zinc finger protein mex-5 (Caenorhabditis elegans, UniProt Q9XUB2); experiment: potency of MEX-5 RNA-binding blockers – biochemical, C. elegans, fluorescence polarization, dose response (AID 1960)
T2 sequence (Q9XUB2 whole entry): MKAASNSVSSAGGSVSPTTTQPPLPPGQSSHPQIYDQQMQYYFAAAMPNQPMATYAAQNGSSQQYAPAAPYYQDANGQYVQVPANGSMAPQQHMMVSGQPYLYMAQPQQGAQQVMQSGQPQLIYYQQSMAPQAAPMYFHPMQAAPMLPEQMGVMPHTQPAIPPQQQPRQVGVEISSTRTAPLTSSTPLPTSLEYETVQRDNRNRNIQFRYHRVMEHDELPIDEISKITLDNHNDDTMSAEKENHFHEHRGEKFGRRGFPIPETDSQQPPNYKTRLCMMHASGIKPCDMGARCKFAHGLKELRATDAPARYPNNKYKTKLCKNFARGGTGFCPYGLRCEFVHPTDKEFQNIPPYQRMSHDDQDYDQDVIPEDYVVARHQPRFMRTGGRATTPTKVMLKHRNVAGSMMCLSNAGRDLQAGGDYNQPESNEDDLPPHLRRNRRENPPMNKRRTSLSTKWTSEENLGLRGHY

[3] = molecular target: T3, Heat shock factor protein 1 (Mus musculus, UniProt P38532); experiment: enhancement of HSF1-driven luciferase signal – cell-based, NIH3T3, luminescence, dose retest, confirmation (AID 435004); format: functional;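 further: stress induced by proteasome inhibitor MG132 added 30 min after compound; luciferase reporter driven by HSF1 response element in NIH3T3 cells; actives raise luminescence as potentiators of the MG132 stress response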
T3 sequence (P38532 whole entry): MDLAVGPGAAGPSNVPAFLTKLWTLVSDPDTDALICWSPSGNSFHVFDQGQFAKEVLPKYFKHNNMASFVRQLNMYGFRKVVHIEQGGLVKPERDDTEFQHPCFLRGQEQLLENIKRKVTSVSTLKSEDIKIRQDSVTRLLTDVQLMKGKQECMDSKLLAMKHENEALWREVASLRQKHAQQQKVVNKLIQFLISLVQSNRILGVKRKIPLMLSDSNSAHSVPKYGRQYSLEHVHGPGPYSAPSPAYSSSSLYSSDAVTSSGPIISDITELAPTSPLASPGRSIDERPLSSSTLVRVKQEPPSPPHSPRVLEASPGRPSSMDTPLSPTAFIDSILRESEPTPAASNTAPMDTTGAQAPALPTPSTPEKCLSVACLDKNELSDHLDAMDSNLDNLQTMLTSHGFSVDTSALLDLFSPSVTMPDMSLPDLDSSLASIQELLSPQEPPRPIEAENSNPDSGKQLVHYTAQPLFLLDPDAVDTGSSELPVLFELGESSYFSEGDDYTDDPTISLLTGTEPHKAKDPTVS

[4] = molecular target: T4, Corticotropin-releasing factor receptor 2/Corticotropin-releasing factor-binding protein (Homo sapiens, UniProt P24387+Q13324); experiment: activators of CRF receptor 2 with binding protein – uHTS hits, confirmation (AID 602473); format: functional; conditions: read-out: EC50_Mean
T4 sequence (Q13324 whole entry): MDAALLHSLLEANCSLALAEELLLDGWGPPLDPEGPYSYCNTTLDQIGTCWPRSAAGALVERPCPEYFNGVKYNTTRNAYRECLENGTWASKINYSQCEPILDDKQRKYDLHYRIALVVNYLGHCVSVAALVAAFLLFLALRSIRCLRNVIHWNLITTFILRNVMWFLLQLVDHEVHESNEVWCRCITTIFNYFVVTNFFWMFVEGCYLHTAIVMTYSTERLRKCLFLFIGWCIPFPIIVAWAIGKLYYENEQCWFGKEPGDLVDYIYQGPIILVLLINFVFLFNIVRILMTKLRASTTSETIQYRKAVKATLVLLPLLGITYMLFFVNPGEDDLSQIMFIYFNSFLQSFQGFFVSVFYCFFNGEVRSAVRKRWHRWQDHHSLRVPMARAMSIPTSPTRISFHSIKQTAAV
T4 sequence (P24387 whole entry): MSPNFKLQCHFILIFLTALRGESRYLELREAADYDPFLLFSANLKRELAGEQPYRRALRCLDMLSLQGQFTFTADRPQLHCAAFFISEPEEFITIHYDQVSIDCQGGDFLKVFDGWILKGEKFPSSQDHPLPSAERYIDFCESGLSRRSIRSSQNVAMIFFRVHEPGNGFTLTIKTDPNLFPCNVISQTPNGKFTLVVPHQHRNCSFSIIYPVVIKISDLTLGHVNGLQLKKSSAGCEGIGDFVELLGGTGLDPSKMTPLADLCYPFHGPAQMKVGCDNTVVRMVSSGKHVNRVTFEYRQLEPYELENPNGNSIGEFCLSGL

[5] = viability of PTEN-deleted HCT116 cells – cell-based, HCT116 PTEN knockout, dose response (AID 1047); format: functional;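 further: HCT116 colon tumor cells with PTEN knocked out; cells exposed to compound for 60 hours before readout; potency for loss of cell viability measured by luminescence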
[6] = viability of HCT116 lacking mutant beta-catenin – cell-based, human colon tumor, dose response (AID 1045); format: functional;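 further: HCT116 colon tumor cells with beta catenin knocked out; cells exposed to compound for 60 hours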
[7] = molecular target: T5, Replicative DNA helicase DnaB (Mycobacterium tuberculosis, UniProt P9WMR3); experiment: DnaB intein splicing inhibitors, dose response, biochemical, cell-free fluorescence (AID 449749); format: functional
T5 sequence (P9WMR3 whole entry): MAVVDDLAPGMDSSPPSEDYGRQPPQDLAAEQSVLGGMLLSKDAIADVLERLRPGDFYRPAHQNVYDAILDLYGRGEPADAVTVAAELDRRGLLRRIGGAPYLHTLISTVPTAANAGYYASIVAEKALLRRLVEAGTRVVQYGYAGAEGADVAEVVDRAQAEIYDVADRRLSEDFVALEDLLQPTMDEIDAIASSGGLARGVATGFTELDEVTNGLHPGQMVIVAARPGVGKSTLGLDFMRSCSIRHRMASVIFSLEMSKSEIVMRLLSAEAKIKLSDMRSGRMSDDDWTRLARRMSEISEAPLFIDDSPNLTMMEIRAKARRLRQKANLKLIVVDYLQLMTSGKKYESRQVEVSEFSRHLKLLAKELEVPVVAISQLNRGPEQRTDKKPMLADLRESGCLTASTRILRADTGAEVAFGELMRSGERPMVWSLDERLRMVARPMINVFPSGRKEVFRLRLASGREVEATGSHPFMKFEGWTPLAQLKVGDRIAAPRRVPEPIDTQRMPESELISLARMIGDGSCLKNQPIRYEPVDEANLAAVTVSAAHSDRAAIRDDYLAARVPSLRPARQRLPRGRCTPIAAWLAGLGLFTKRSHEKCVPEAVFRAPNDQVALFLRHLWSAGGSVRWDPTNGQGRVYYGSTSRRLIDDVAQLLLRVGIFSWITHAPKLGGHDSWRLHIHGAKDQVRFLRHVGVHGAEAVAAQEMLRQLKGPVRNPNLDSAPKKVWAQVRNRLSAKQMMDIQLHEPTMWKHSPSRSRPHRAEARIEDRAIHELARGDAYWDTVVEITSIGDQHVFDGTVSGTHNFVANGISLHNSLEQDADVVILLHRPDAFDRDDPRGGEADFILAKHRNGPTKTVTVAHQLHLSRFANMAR

[8] = molecular target: T6, Protein RecA (Mycobacterium tuberculosis, UniProt P9WHJ3); experiment: Fluorescence Cell-Free Homogeneous Dose Retest to Identify Inhibitors of RecA-Intein Splicing Activity. [Related pubchem assays (depositor defined):AID2097, AID2223, AID489010, AID492950]; format: functional
T6 sequence (P9WHJ3 whole entry): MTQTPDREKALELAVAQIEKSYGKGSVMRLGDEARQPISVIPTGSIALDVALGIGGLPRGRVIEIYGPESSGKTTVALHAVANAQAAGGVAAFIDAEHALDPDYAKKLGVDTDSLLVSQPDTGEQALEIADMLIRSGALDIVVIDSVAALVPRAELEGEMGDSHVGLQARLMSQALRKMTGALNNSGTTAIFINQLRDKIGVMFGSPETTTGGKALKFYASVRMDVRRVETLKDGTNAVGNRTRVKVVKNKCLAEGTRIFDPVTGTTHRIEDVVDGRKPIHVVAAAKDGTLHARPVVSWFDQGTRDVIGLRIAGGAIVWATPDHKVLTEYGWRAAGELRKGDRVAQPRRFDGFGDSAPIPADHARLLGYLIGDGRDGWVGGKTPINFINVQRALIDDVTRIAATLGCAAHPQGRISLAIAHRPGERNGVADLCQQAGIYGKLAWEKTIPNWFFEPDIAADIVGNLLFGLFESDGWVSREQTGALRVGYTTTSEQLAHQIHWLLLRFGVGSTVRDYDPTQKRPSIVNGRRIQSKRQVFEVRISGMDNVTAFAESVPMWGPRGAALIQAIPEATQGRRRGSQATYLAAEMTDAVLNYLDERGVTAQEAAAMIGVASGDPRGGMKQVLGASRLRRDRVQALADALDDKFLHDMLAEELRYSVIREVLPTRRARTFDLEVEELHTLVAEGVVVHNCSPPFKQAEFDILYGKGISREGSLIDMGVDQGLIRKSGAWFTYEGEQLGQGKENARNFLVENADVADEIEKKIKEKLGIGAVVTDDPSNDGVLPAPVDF

[9] = molecular target: Cytochrome P450 2C19 (Homo sapiens, UniProt P33261); experiment: Cytochrome panel assay with activity outcomes. Panel member name: p450-cyp2c19 Compounds with AC50 equal or less than 10 uM are considered active; format: functional; conditions: read-out: AC50
Chain of Cytochrome P450 2C19 (P33261 whole entry): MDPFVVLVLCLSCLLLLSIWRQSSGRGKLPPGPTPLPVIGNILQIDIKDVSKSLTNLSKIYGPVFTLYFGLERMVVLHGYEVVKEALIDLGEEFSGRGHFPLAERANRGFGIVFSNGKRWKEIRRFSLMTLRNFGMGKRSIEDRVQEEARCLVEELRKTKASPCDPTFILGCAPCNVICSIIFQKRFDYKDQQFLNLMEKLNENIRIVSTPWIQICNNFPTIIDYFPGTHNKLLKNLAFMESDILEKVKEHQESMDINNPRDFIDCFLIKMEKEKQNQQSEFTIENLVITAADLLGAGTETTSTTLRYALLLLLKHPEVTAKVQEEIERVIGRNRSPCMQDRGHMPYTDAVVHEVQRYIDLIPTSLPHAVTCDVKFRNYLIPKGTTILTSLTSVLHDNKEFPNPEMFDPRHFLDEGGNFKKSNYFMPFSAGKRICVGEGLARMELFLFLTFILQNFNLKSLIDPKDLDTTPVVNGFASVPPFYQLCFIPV

[10] = Trypanosoma cruzi growth suppression in host cells – NIH3T3 host cells, beta-gal luminescence, confirmation (AID 2044); format: functional, cell-based;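 further: intracellular parasites grown in NIH/3T3 mouse fibroblasts as host cells; luminescent beta-galactosidase reporter signal from transgenic T. cruzi replicating inside host cells; inhibitors lower the luminescence signal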
[11] = NIH3T3 cell viability loss – ATP luminescence, mouse fibroblasts, counter-screen, dose response (AID 2010); format: functional, cell-based;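 further: cells exposed to compound for about 90 hours before reading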
[12] = molecular target: Cytochrome P450 2D6 (Homo sapiens, UniProt P10635);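 further: CYP2D6 member of a cytochrome P450 panel assay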
Chain of Cytochrome P450 2D6 (P10635 whole entry): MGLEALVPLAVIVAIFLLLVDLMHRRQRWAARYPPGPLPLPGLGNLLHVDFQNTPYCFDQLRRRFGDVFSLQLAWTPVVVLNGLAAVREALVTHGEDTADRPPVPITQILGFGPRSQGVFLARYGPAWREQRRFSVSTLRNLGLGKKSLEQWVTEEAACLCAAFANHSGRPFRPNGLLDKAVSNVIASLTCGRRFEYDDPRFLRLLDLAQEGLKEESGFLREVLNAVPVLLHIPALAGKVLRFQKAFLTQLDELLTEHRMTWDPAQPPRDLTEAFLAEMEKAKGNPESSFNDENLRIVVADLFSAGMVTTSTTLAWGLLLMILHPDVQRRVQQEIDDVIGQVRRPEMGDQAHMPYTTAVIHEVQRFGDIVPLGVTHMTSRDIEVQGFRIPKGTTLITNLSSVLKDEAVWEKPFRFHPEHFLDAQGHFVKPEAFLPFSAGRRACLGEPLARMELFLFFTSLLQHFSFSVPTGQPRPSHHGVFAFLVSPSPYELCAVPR

[13] = molecular target: T7, Cytochrome P450 1A2 (Homo sapiens, UniProt P05177);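 further: PubChem cytochrome P450 panel assay, CYP1A2 panel member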
T7 sequence (P05177 whole entry): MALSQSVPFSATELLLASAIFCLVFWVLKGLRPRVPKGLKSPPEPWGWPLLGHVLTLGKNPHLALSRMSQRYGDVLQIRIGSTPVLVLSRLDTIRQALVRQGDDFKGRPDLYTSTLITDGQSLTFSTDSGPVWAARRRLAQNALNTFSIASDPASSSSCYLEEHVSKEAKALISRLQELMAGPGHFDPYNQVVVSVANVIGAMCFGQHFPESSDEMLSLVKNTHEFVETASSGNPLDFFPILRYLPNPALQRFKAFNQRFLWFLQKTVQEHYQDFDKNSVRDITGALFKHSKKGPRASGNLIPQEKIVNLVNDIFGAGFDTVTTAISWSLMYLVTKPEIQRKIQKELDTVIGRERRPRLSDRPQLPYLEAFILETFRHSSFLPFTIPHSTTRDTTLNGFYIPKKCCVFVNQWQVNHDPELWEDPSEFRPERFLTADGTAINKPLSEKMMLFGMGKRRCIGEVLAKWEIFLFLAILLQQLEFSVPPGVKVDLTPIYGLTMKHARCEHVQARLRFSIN

[14] = Luminescence Cell-Based Dose Retest to Confirm Inhibitors of Cancer Stem Cells. [Related pubchem assays (depositor defined):AID2717, AID2721]; format: functional; conditions: Homo sapiens

## CC1=CC(C)(C)N2C(=O)C3(C(C#N)=C(N)OC4=C3C(=O)CC(C)(C)C4)c3cccc1c32 (configuration not stated)
[1]
  EC50: > 300 µM (not active)
[2]
  EC50: > 300 µM (not active)

## CN(C)c1ccc(N/C=C2/C(=O)NC(=O)N(CCC3=CCCCC3)C2=O)cc1
[1]
  EC50: > 300 µM (not active)
[2]
  EC50: > 300 µM (not active)

## CCOC(=O)C1=NN(C(=O)c2ccccc2)C(O)(c2ccc(C)cc2)C1 (configuration not stated)
[3]
  EC50: > 260 µM (inactive)
[4]
  EC50: 13.5 µM (active)

## COC(=O)C1=C(C)N(c2ccccc2)/C(=C/c2ccco2)C1=O
[1]
  EC50: 99 µM (active)
[2]
  EC50: 5.06 µM (active)

## CCOC(=O)C1=C(N)Oc2c(c(O)nc3ccccc23)C1c1ccccc1 (configuration not stated)
[5]
  EC50: 53.5 µM (active)
[6]
  EC50: 94.3 µM (active)

## CCOC(=O)c1nn(-c2ccc(C)cc2)c2nc(Nc3ccccc3)cc(=O)n12
[1]
  EC50: 78.2 µM (active)
[2]
  EC50: > 300 µM (not active)

## O=C(NCc1ccccc1)C1Nc2ccc(OC(F)(F)F)cc2C2C=CCC12 (configuration not stated)
[1]
  EC50: > 300 µM (not active)
[2]
  EC50: > 300 µM (not active)

## COc1cccc(-n2nc(C#N)c(Cl)cc2=O)c1
[3]
  EC50: 10.7 µM (active)
[7]
  AC50: 2.49 µM (active)
[8]
  EC50: 4.38 µM (active)

## FC(F)(F)c1nnc(-c2ccccc2)nc1Sc1ccccc1
[5]
  EC50: 18.7 µM (active)
[6]
  EC50: 17.3 µM (active)
[3]
  EC50: 4.22 µM (inconclusive)
[9]
  AC50: 0.00355 µM (inconclusive)
[7]
  AC50: 19.3 µM (active)
[8]
  EC50: 9.56 µM (active)

## Cc1ccc(-c2nc(NC(=O)c3ccc(S(=O)(=O)N(CCC#N)CCC#N)cc3)sc2-c2ccccc2)cc1
[10]
  EC50: 2.02 µM (active)
[5]
  EC50: 17 µM (active)
[11]
  EC50: > 60 µM (not active)
[6]
  EC50: 17.3 µM (active)

## O=P(Nc1ccccc1)(Nc1ccccc1)Oc1cccc(Cl)c1
[5]
  EC50: 134 µM (active)
[6]
  EC50: 239 µM (active)
[12]
  AC50: 15.8 µM (inconclusive)
[13]
  AC50: 15.8 µM (inconclusive)

## Cc1nnc(S/C(=C/c2ccc(-c3cc(Cl)ccc3C)o2)C(=O)O)[nH]1
[1]
  EC50: 38.4 µM (active)
[2]
  EC50: 31 µM (active)

## Cc1c(C(=O)O)cccc1-n1c(C)cc(/C=N/NC(=O)c2cc3ccccc3o2)c1C
[1]
  EC50: > 300 µM (not active)
[2]
  EC50: > 300 µM (not active)

## Clc1ccc(CO/N=C/c2c(-c3ccccc3)nc3n2CCS3)c(Cl)c1
[14]
  AC50: 2.22 µM (active)
[3]
  EC50: > 260 µM (inactive)

Source: ChEMBL document CHEMBL1201862, “PubChem BioAssay data set” (2004)
